Consider 10 compounds from paper PMC11433764, “A Novel Compound from the Phenylsulfonylpiperazine Class: Evaluation of In Vitro Activity on Luminal Breast Cancer Cells” (Molecules, 2024).

The structures appear in SMILES notation.

The subject of one assay is MCF-10A. Description: MTT cell viability, non-tumor cell line MCF-10A. Type of assay: cell-based. The following applies: Homo sapiens, MCF-10A, 48 h, 1.25–160 μM, read-out: IC50 MCF-10A. As for the experimental part:
(§1) Four different breast cells lines were used in this study: MCF-10A (non-tumorigenic), MCF7 (ER+ BC), MDA-MB453 (HER2+ BC) and MDA-MB231 (TNBC). All lineages were obtained from the American Type Culture Collection (ATCC; Manassas, VA, USA) and maintained at a temperature of 37 °C according to the supplier’s recommendations. Only MDA-MB231 cells were not kept in an atmosphere of 5% CO2. MCF-10A was grown in Dulbecco’s Modified Eagle’s Medium (DMEM F12, Gibco, ThermoFisher Scientific, Waltham, MA, USA) supplemented with 20 ng/mL epidermal growth factor (Gibco, ThermoFisher Scientific, Waltham, MA, USA), 0.5 μg/mL hydrocortisone (Sigma-Aldrich, Sigma-Aldrich, St. Louis, MO, USA) and 10 μg/mL insulin (Gibco, ThermoFisher Scientific, Waltham, MA, USA). MCF7 was cultivated in Roswell Park Memorial Institute Medium (RPMI-1640, Gibco, ThermoFisher Scientific, Waltham, MA, USA), MDA-MB453 in IMDM and MDA-MB231 in Leibovitz’s medium (L-15, Gibco, ThermoFisher Scientific, Waltham, MA, USA). All media were supplemented with 10% fetal bovine serum (FBS, Gibco, ThermoFisher Scientific, Waltham, MA, USA) and 50 µg/mL of gentamicin (Cultilab, Campinas, SP, Brazil). The cells were confirmed to be free of mycoplasma and passaged using a 0.25% trypsin-EDTA solution when confluency reached 80–90%.
(§2) Cell viability was determined by spectrophotometric quantification of MTT (3-[4,5-dimethyl-thiazol-2-yl]-2,5-diphenyltetrazolium bromide—Invitrogen. Waltham, MA, USA) reduction to formazan crystals. Cells were seeded at the density of 1 × 10^4 cells/well (MCF-10A, MDA-MB453), 1.5 × 10^4 cells/well (MDA-MB231) and 3 × 10^3 cells/well (MCF7) in 96-well culture dishes and incubated with different concentrations of the compounds (1.25, 2.5, 5, 10, 20, 40, 80 and 160 µM) for 48 h. The medium was than replaced by MTT solution (0.5 mg/mL) and plates were kept at 37 °C for 4 h. After the aspiration of the media, the formazan crystals were diluted with 100 μL of dimethyl-sulfoxide (DMSO)/well and the absorbance at 570 nm was measured using a spectrophotometer (Thermo Plate TP-Reader, Waltham, MA, USA). Cytotoxicity was calculated using the following formula: Cytotoxicity (%) = [absorbance of cells treated with the compounds/absorbance of cells treated with DMSO) × 100]. The IC50 was determined for each compound and was defined as the concentration required to inhibit 50% of cell growth, compared to the control sample (cells treated with DMSO 0.05%).
(§3) Data were presented as the mean ± standard deviation (SD) and analyzed using GraphPad Prism 9.0 software (GraphPad Software Inc., La Jolla, CA, USA). All data were assayed in triplicate. Statistical analysis was performed using one-way ANOVA, Tukey´s HSD post hoc test and Student’s t-test. The IC50 was calculated using non-linear regression and the selectivity index (SI) was calculated by the ratio between the IC50 values corresponding to the non-tumor cell lineage (MCF-10A) and the IC50 values corresponding to the BC cell lines. Statistical significance was accepted at p values < 0.05.
Broadly, the IC50 is the concentration that inhibits the measured activity by half. Turning to `CN(C)Cc1ccc(N2CCN(S(=O)(=O)c3ccc(F)cc3)CC2)nc1` [Compound 11], the IC50 is more than 160 µM.
For `CN(C)CCOc1ccc(N2CCN(S(=O)(=O)c3ccc(Cl)cc3)CC2)cc1` [Compound 12], the IC50 is 68.3 µM.

Still in this assay, the particulars now being: Homo sapiens, MCF-10A, 48 h, read-out: IC50 MCF-10A (Table S1).
`O=S(=O)(c1ccc(Cl)cc1)N1CCNCC1` [Compound 13]: the IC50 is more than 160 µM.
As to `Cc1ccc(S(=O)(=O)N2CCN(c3ccc(C(=O)N(C)C)cn3)CC2)cc1` [Compound 14], the IC50 was more than 160 µM.
Consider `CN(C)C(=O)c1ccc(N2CCN(S(=O)(=O)c3ccccc3)CC2)nc1` [Compound 15], for which the IC50 was more than 160 µM.
With `O=C(O)c1ccc(N2CCN(S(=O)(=O)c3ccc(Cl)cc3)CC2)nc1` [Compound 16], the IC50 is more than 160 µM.
Turning to `O=C(c1ccc(N2CCN(S(=O)(=O)c3ccc(Cl)cc3)CC2)nc1)N1CCOCC1` [Compound 17], the IC50 was more than 160 µM.
Take `CN1CCN(C(=O)c2ccc(N3CCN(S(=O)(=O)c4ccc(Cl)cc4)CC3)nc2)CC1` [Compound 18]: the IC50 was more than 160 µM.
For `O=S(=O)(c1ccc(F)cc1)N1CCN(c2ccccc2)CC1` [Compound 19], the IC50 is more than 160 µM.
On to `O=S(=O)(c1ccc(Cl)cc1)N1CCN(c2ccc(O)cc2)CC1` [Compound 20], for which the IC50 was more than 160 µM.

Another assay has as its system MCF7. The assay is described as follows: MTT cell viability, MCF7. Type of assay: cell-based. The following applies: Homo sapiens, MCF7; 48 h, MTT, 1.25–160 μM; read-out: IC50 MCF7. As for the experimental part: as §1, §2, §3
With `CN(C)Cc1ccc(N2CCN(S(=O)(=O)c3ccc(F)cc3)CC2)nc1` [Compound 11], the IC50 turned out to be 20 µM.
Still for that read-out and setting: the value for `CN(C)CCOc1ccc(N2CCN(S(=O)(=O)c3ccc(Cl)cc3)CC2)cc1` [Compound 12] was 49.9 µM.

Staying with this assay, now noted: Homo sapiens, MCF7; 48 h, MTT; read-out: IC50 MCF7 (Table S1).
Turning to `O=S(=O)(c1ccc(Cl)cc1)N1CCNCC1` [Compound 13], the IC50 was more than 160 µM.
As to `Cc1ccc(S(=O)(=O)N2CCN(c3ccc(C(=O)N(C)C)cn3)CC2)cc1` [Compound 14], the IC50 was more than 160 µM.
In the case of `CN(C)C(=O)c1ccc(N2CCN(S(=O)(=O)c3ccccc3)CC2)nc1` [Compound 15], the IC50 was more than 160 µM.
As for `O=C(O)c1ccc(N2CCN(S(=O)(=O)c3ccc(Cl)cc3)CC2)nc1` [Compound 16], the IC50 was more than 160 µM.
The same measure, in the same setting: the value for `O=C(c1ccc(N2CCN(S(=O)(=O)c3ccc(Cl)cc3)CC2)nc1)N1CCOCC1` [Compound 17] was more than 160 µM; that for `CN1CCN(C(=O)c2ccc(N3CCN(S(=O)(=O)c4ccc(Cl)cc4)CC3)nc2)CC1` [Compound 18] was more than 160 µM; that for `O=S(=O)(c1ccc(F)cc1)N1CCN(c2ccccc2)CC1` [Compound 19] was more than 160 µM.
Still for that read-out and setting: the value for `O=S(=O)(c1ccc(Cl)cc1)N1CCN(c2ccc(O)cc2)CC1` [Compound 20] was more than 160 µM.

Still in this assay, the particulars now being: IC50 MCF10A / IC50 MCF7.
As for `CN(C)CCOc1ccc(N2CCN(S(=O)(=O)c3ccc(Cl)cc3)CC2)cc1` [Compound 12], the “SI MCF7” value is 1.37.

The test system of another assay is MDA-MB-231. Description: MTT cell viability, MDA-MB-231. Type of assay: cell-based. On the set-up: key to SI MDA-MB-231: NS: the compound was more active in the non-tumor cell line. As to conditions: Homo sapiens, MDA-MB-231; 48 h, MTT, 1.25–160 μM; read-out: IC50 MDA-MB-231. As for the experimental part: as §1, §2, §3
As for `CN(C)Cc1ccc(N2CCN(S(=O)(=O)c3ccc(F)cc3)CC2)nc1` [Compound 11], the IC50 was more than 160 µM.
`CN(C)CCOc1ccc(N2CCN(S(=O)(=O)c3ccc(Cl)cc3)CC2)cc1` [Compound 12]: the IC50 is more than 160 µM.

Still in this assay, the particulars now being: Homo sapiens, MDA-MB-231; 48 h, MTT; read-out: IC50 MD-AMB 231 (Table S1).
For `O=S(=O)(c1ccc(Cl)cc1)N1CCNCC1` [Compound 13], the IC50 was more than 160 µM.
As for `Cc1ccc(S(=O)(=O)N2CCN(c3ccc(C(=O)N(C)C)cn3)CC2)cc1` [Compound 14], the IC50 is more than 160 µM.
As to `CN(C)C(=O)c1ccc(N2CCN(S(=O)(=O)c3ccccc3)CC2)nc1` [Compound 15], the IC50 was more than 160 µM.
Same read-out and setting: the value for `O=C(O)c1ccc(N2CCN(S(=O)(=O)c3ccc(Cl)cc3)CC2)nc1` [Compound 16] was more than 160 µM; that for `O=C(c1ccc(N2CCN(S(=O)(=O)c3ccc(Cl)cc3)CC2)nc1)N1CCOCC1` [Compound 17] was more than 160 µM.
Take `CN1CCN(C(=O)c2ccc(N3CCN(S(=O)(=O)c4ccc(Cl)cc4)CC3)nc2)CC1` [Compound 18]: the IC50 is more than 160 µM.
For `O=S(=O)(c1ccc(F)cc1)N1CCN(c2ccccc2)CC1` [Compound 19], the IC50 is more than 160 µM.
In the case of `O=S(=O)(c1ccc(Cl)cc1)N1CCN(c2ccc(O)cc2)CC1` [Compound 20], the IC50 was more than 160 µM.

The assay is the same for the next values; noted with them: IC50 MCF10A / IC50 MDA-MB-231.
Turning to `CN(C)CCOc1ccc(N2CCN(S(=O)(=O)c3ccc(Cl)cc3)CC2)cc1` [Compound 12], the “SI MDA-MB-231” value was “NS”.

A further assay relates to MDA-MB-453. Description: MTT cell viability, MDA-MB-453. Type of assay: cell-based. On the set-up: key to SI MDA-MB-453: NS: the compound was more active in the non-tumor cell line. As to conditions: Homo sapiens, MDA-MB-453; 48 h, MTT, 1.25–160 μM; read-out: IC50 MDA-MB-453. As for the experimental part: as §1, §2, §3
Turning to `CN(C)Cc1ccc(N2CCN(S(=O)(=O)c3ccc(F)cc3)CC2)nc1` [Compound 11], the IC50 was 109 µM.
`CN(C)CCOc1ccc(N2CCN(S(=O)(=O)c3ccc(Cl)cc3)CC2)cc1` [Compound 12]: the IC50 is 136 µM.

The assay is the same for the next values; noted with them: Homo sapiens, MDA-MB-453; 48 h, MTT; read-out: IC50 MD-AMB 453 (Table S1).
In the case of `O=S(=O)(c1ccc(Cl)cc1)N1CCNCC1` [Compound 13], the half-inhibitory concentration (IC50) is more than 160 µM.
For `Cc1ccc(S(=O)(=O)N2CCN(c3ccc(C(=O)N(C)C)cn3)CC2)cc1` [Compound 14], the IC50 was more than 160 µM.
For `CN(C)C(=O)c1ccc(N2CCN(S(=O)(=O)c3ccccc3)CC2)nc1` [Compound 15], the IC50 was more than 160 µM.
For `O=C(O)c1ccc(N2CCN(S(=O)(=O)c3ccc(Cl)cc3)CC2)nc1` [Compound 16], the IC50 was more than 160 µM.
Turning to `O=C(c1ccc(N2CCN(S(=O)(=O)c3ccc(Cl)cc3)CC2)nc1)N1CCOCC1` [Compound 17], the IC50 is more than 160 µM.
On to `CN1CCN(C(=O)c2ccc(N3CCN(S(=O)(=O)c4ccc(Cl)cc4)CC3)nc2)CC1` [Compound 18], for which the IC50 was more than 160 µM.
Turning to `O=S(=O)(c1ccc(F)cc1)N1CCN(c2ccccc2)CC1` [Compound 19], the IC50 was more than 160 µM.
Regarding `O=S(=O)(c1ccc(Cl)cc1)N1CCN(c2ccc(O)cc2)CC1` [Compound 20], the IC50 is more than 160 µM.

The same assay, now with this note: IC50 MCF10A / IC50 MDA-MB-453.
On to `CN(C)Cc1ccc(N2CCN(S(=O)(=O)c3ccc(F)cc3)CC2)nc1` [Compound 11], for which the “SI MDA-MB-453” value is on record as more than 1.47.
With `CN(C)CCOc1ccc(N2CCN(S(=O)(=O)c3ccc(Cl)cc3)CC2)cc1` [Compound 12], the “SI MDA-MB-453” value is on record as “NS”.

A further assay relates to tumor cells MCF7, MDA-MB-453 and MDA-MB-231. The assay is described as follows: MTT cell viability, tumor cells (stated collectively). Type of assay: cell-based.
Details: not given
As for the experimental part:
as §1, §2, §3
In the case of `CN(C)CCOc1ccc(N2CCN(S(=O)(=O)c3ccc(Cl)cc3)CC2)cc1` [Compound 12], the “Selectivity for tumor cells over MCF-10A (in words)” value is on record as “not selective”.

Still in this assay, the particulars now being: 48 h, MTT; tumor cells stated collectively.
Compound `CN(C)CCOc1ccc(N2CCN(S(=O)(=O)c3ccc(Cl)cc3)CC2)cc1` [Compound 12] returned an IC50 of less than 50 µM.
